Experimental data: patent US4370489A, “Herbicidal compounds” (Hoechst Aktiengesellschaft, priority 1976, dated 1983)

Key:
spring wheat [1] = assay: Post-emergence trial in two stages, pots on a site without roof, spring wheat (Example II, Table II); assay type: in vivo
Experimental: (§1) The results and also the results of all following examples were evaluated 4 weeks later according to the following scheme:
(§2) The amounts of active compound required for a 90% effect, determined by the probit method (cf. Bliss, Annals of Applied Biology, 22 1935), show very distincly the difference between the compound of the invention and the comparative compound. […] None of the compounds did any harm to the wheat.
(§3) Post-emergence treatment in two different stages of development
(§4) Experiments in pots on a site without roof
(§5) stage 1: 3 to 4 leaves with beginning growth of side
(§6) stage 2: main tillering to terminated tillering.

Digitaria [2] = assay: Pre-emergence greenhouse pot trial, Digitaria (Example V, Table V); assay type: in vivo
Experimental: as §1
(§7) In a greenhouse the compounds to be tested were sprayed on the surface of the soil directly after sowing. […] Dicotyledonous crop plants (the same as used in Example I) were not damaged by the applied amounts.
(§8) Effect on weed grasses in a pre-emergence process (evalua-
(§9) tion scheme) experiment in pots in the greenhouse.

wild oat = assay: Field trial in wild oat, post-emergence treatment (Example VI, Table VI); assay type: in vivo; conditions: for efficiency in % (counting of panicles) / evaluation 5 weeks after treatment: post-emergence
Experimental: In a field trial compound 1a of the invention was sprayed in the form of a 36% wettable powder formulation onto wild oat (single system, natural growth) after the plants had developed 3 or 4 leaves.
Three lots each were treated with different concentrations of the active compound and the comparative compound, the amount of spray liquor applied being 600 liters per hectare. Besides the usual visual evaluation at the end of the trial, the number of panicles per square meter was counted. In the untreated lots 400 to 500 panicles were counted per square meter, i.e. the field was heavily infected.
The relations are still more distinct when the amount of active compound required for a 90% effect is determined by the probit method (graphical evaluation) mentioned in Example II.

Avena fatua [3] = assay: Post emergence treatment in two stages, boxes on a site without roof, wild oat (Table III); assay type: in vivo; conditions: 0.9 kg/hectare
Experimental: as §1
(§10) Effect on wild oat and sugar beet
(§11) Post emergence treatment in two stages of development
(§12) boxes 20 × 24 × 22 cm in size on a site without roof

Setaria [4] = assay: Post-emergence greenhouse pot trial, Setaria (Example I, Table I); assay type: in vivo; conditions: greenhouse pots, 4 weeks
Experimental: (§13) Seeds of weed grasses were sown in pots filled with loamy soil and placed in the greenhouse for germination and emergence. As soon as the plants had developed 3 or 4 leaves, they were sprayed with wettable powder formulations, suspended in water, of compounds according to the invention.
as §1
(§14) 4 is still considered an acceptable herbicidal effect in weeds and a satisfactory preserving effect in crop plants (cf. Bolle, Nachrichtenblatt des Deutschen Pflanzenschutzdienstes 16, 1964, pages 92-94).
(§15) Effect on weed grasses in a post-emergence trial in pots
(§16) in the greenhouse (Evaluation scheme)

sugar beet = assay: Post emergence treatment in two stages, boxes on a site without roof, sugar beet (Table III); assay type: in vivo; conditions: 0.9 kg/hectare
Experimental: as §1, §10, §11, §12

Avena ludoviciana = assay: Post-emergence treatment, pots on a site without roof, Avena ludoviciana (Example IV, Table IV); assay type: in vivo; conditions: post-emergence, emulsion concentrate
Experimental: as §1
(§17) In summer a further experiment was carried through under similar conditions to compare the effect of compound 1a with that of comparative compound A. Both compounds were used in the form of an emulsion concentrate (Table IV).
(§18) Post-emergence treatment (evaluation scheme); experiment
(§19) in pots on a site without roof

spring barley = assay: Post-emergence treatment, pots on a site without roof, spring barley (Example IV, Table IV); assay type: in vivo; conditions: emulsion concentrate; note: ranges in brackets are in %
Experimental: as §1, §17, §18, §19

Setaria [5] = assay: Pre-emergence greenhouse pot trial, Setaria (Example V, Table V); assay type: in vivo
Experimental: as §1, §7, §8, §9

Avena fatua [6] = assay: Post-emergence trial in two stages, pots on a site without roof, wild oat (Example II, Table II); assay type: in vivo; conditions: for 90% effective dose: probit method; for Effect on wild oat (evaluation), Avena fatua: post-emergence
Experimental: as §1, §2, §3, §4, §5, §6

spring wheat [7] = assay: Post-emergence treatment, pots on a site without roof, spring wheat (Example IV, Table IV); assay type: in vivo; conditions: emulsion concentrate; note: ranges in brackets are in %
Experimental: as §1, §17, §18, §19

Lolium [8] = assay: Pre-emergence greenhouse pot trial, Lolium (Example V, Table V); assay type: in vivo
Experimental: as §1, §7, §8, §9

Echinochloa [9] = assay: Pre-emergence greenhouse pot trial, Echinochloa (Example V, Table V); assay type: in vivo
Experimental: as §1, §7, §8, §9

Avena fatua [10] = assay: Post-emergence treatment, pots on a site without roof, Avena fatua (Example IV, Table IV); assay type: in vivo; conditions: post-emergence, emulsion concentrate
Experimental: as §1, §17, §18, §19

Digitaria [11] = assay: Post-emergence greenhouse pot trial, Digitaria (Example I, Table I); assay type: in vivo; conditions: greenhouse pots, 4 weeks
Experimental: as §13, §1, §14, §15, §16

Lolium [12] = assay: Post-emergence greenhouse pot trial, Lolium (Example I, Table I); assay type: in vivo; conditions: greenhouse pots, 4 weeks
Experimental: as §13, §1, §14, §15, §16

Echinochloa [13] = assay: Post-emergence greenhouse pot trial, Echinochloa (Example I, Table I); assay type: in vivo; conditions: greenhouse pots, 4 weeks
Experimental: as §13, §1, §14, §15, §16

Alopecurus = assay: Post-emergence greenhouse pot trial, annual blackgrass (Example I, Table I); assay type: in vivo, annual blackgrass (Alopecurus); conditions: for Effect on weed grasses (evaluation scheme number), Alopecurus: greenhouse pots, 4 weeks
Experimental: as §13, §1, §14, §15, §16

Alopecurus myos. = assay: Post-emergence treatment, pots on a site without roof, blackgrass (Example IV, Table IV); assay type: in vivo, annual black-grass (Alopecurus); conditions: for Effect (evaluation scheme), Alopecurus myos.: post-emergence, emulsion concentrate
Experimental: as §1, §17, §18, §19

COC(=O)C(C)Oc1ccc(Oc2ccc(Cl)cc2Cl)cc1 (stereo not drawn) [A, methyl-2-[4-(2',4'-dichlorophenoxy)-phenoxy]-propionate, reference compound]
evaluation, spring wheat (spring wheat [1]; stage 1, 0.112 kg/hectare): 1 (0)
evaluation, spring wheat (spring wheat [1]; stage 1, 0.225 kg/hectare): 1 (0)
evaluation, spring wheat (spring wheat [1]; stage 1, 0.45 kg/hectare): 1 (0)
evaluation, spring wheat (spring wheat [1]; stage 1, 0.9 kg/hectare): 1 (0)
evaluation, spring wheat (spring wheat [1]; stage 2, 0.112 kg/hectare): 1 (0)
evaluation, spring wheat (spring wheat [1]; stage 2, 0.225 kg/hectare): 1 (0)
evaluation, spring wheat (spring wheat [1]; stage 2, 0.45 kg/hectare): 1 (0)
evaluation, spring wheat (spring wheat [1]; stage 2, 0.9 kg/hectare): 1 (0)
Effect on weed grasses (evaluation scheme), Digitaria (Digitaria [2]; 0.62 kg/hectare): 7 (65.0 to <75.0)
Effect on weed grasses (evaluation scheme), Digitaria (Digitaria [2]; 1.25 kg/hectare): 4 (90.0 to <95.0)
efficiency in % (counting of panicles) (wild oat; 0.54 kg/hectare): 50.7%
evaluation 5 weeks after treatment (wild oat; 0.54 kg/hectare): 8 (32.5 to <65.0)
efficiency in % (counting of panicles) (wild oat; 0.72 kg/hectare): 59.9%
evaluation 5 weeks after treatment (wild oat; 0.72 kg/hectare): 7 (65.0 to <75.0)
effect on wild oat (wild oat; 0.90 kg per hectare, in words): insufficient
efficiency in % (counting of panicles) (wild oat; 0.90 kg/hectare): 65.2%
evaluation 5 weeks after treatment (wild oat; 0.90 kg/hectare): 6 (75.0 to <85.0)
amount of active compound required for a 90% effect (wild oat; without wetting agent, probit method (graphical evaluation)): 2.7 kg/hectare
Effect on wild oat, Avena fatua, number (Avena fatua [3]; 3-leaf stage): 2 (97.5 to <100)
degree of damage % (evaluation by weight), Avena fatua (Avena fatua [3]; 3-leaf stage): 99%
Effect on wild oat, Avena fatua, number (Avena fatua [3]; start of tillering): 5 (85.0 to <90.0)
degree of damage % (evaluation by weight), Avena fatua (Avena fatua [3]; start of tillering): 79%
Effect on weed grasses (evaluation scheme number), Setaria (Setaria [4]; 0.15 kg/hectare): 4 (90.0 to <95.0)
Effect on weed grasses (evaluation scheme number), Setaria (Setaria [4]; 0.62 kg/hectare): 2 (97.5 to <100)
Effect on weed grasses (evaluation scheme number), Setaria (Setaria [4]; 2.5 kg/hectare): 1 (100)
sugar beet number (sugar beet; 2-leaf stage): 2 (0 to 2.5)
sugar beet number (sugar beet; 4-leaf stage): 2 (0 to 2.5)
Effect (evaluation scheme), Avena ludoviciana (Avena ludoviciana; 0.225 kg/hectare): 7 (65.0 to <75.0)
Effect (evaluation scheme), Avena ludoviciana (Avena ludoviciana; 0.45 kg/hectare): 7 (65.0 to <75.0)
Effect (evaluation scheme), Avena ludoviciana (Avena ludoviciana; 0.9 kg/hectare): 6 (75.0 to <85.0)
evaluation scheme, spring barley (spring barley; 0.225 kg/hectare): 1 (0)
evaluation scheme, spring barley (spring barley; 0.45 kg/hectare): 1 (0)
evaluation scheme, spring barley (spring barley; 0.9 kg/hectare): 1 (0)
Effect on weed grasses (evaluation scheme), Setaria (Setaria [5]; 0.62 kg/hectare): 8 (32.5 to <65.0)
Effect on weed grasses (evaluation scheme), Setaria (Setaria [5]; 1.25 kg/hectare): 6 (75.0 to <85.0)
90% effective dose (Avena fatua [6]; stage 1 (3 to 4 leaves with beginning growth of side)): 0.55 kg per hectare
Effect on wild oat (evaluation), Avena fatua (Avena fatua [6]; stage 1, 0.112 kg/hectare): 9 (0 to <32.5)
Effect on wild oat (evaluation), Avena fatua (Avena fatua [6]; stage 1, 0.225 kg/hectare): 8 (32.5 to <65.0)
Effect on wild oat (evaluation), Avena fatua (Avena fatua [6]; stage 1, 0.45 kg/hectare): 5 (85.0 to <90.0)
Effect on wild oat (evaluation), Avena fatua (Avena fatua [6]; stage 1, 0.9 kg/hectare): 3 (95.0 to <.97.5)
90% effective dose (Avena fatua [6]; stage 2 (main tillering to terminated tillering)): 0.82 kg per hectare
Effect on wild oat (evaluation), Avena fatua (Avena fatua [6]; stage 2, 0.112 kg/hectare): 8 (32.5 to <65.0)
Effect on wild oat (evaluation), Avena fatua (Avena fatua [6]; stage 2, 0.225 kg/hectare): 7 (65.0 to <75.0)
Effect on wild oat (evaluation), Avena fatua (Avena fatua [6]; stage 2, 0.45 kg/hectare): 5 (85.0 to <90.0)
Effect on wild oat (evaluation), Avena fatua (Avena fatua [6]; stage 2, 0.9 kg/hectare): 5 (85.0 to <90.0)
evaluation scheme, spring wheat (spring wheat [7]; 0.225 kg/hectare): 1 (0)
evaluation scheme, spring wheat (spring wheat [7]; 0.45 kg/hectare): 1 (0)
evaluation scheme, spring wheat (spring wheat [7]; 0.9 kg/hectare): 1 (0)
Effect on weed grasses (evaluation scheme), Lolium (Lolium [8]; 0.62 kg/hectare): 6 (75.0 to <85.0)
Effect on weed grasses (evaluation scheme), Lolium (Lolium [8]; 1.25 kg/hectare): 5 (85.0 to <90.0)
Effect on weed grasses (evaluation scheme), Echinochloa (Echinochloa [9]; 0.62 kg/hectare): 4 (90.0 to <95.0)
Effect on weed grasses (evaluation scheme), Echinochloa (Echinochloa [9]; 1.25 kg/hectare): 3 (95.0 to <.97.5)
Effect (evaluation scheme), Avena fatua (Avena fatua [10]; 0.225 kg/hectare): 8 (32.5 to <65.0)
Effect (evaluation scheme), Avena fatua (Avena fatua [10]; 0.45 kg/hectare): 8 (32.5 to <65.0)
Effect (evaluation scheme), Avena fatua (Avena fatua [10]; 0.9 kg/hectare): 6 (75.0 to <85.0)
Effect on weed grasses (evaluation scheme number), Digitaria (Digitaria [11]; 0.15 kg/hectare): 8 (32.5 to <65.0)
Effect on weed grasses (evaluation scheme number), Digitaria (Digitaria [11]; 0.62 kg/hectare): 3 (95.0 to <.97.5)
Effect on weed grasses (evaluation scheme number), Digitaria (Digitaria [11]; 2.5 kg/hectare): 1 (100)
Effect on weed grasses (evaluation scheme number), Lolium (Lolium [12]; 0.15 kg/hectare): 7 (65.0 to <75.0)
Effect on weed grasses (evaluation scheme number), Lolium (Lolium [12]; 0.62 kg/hectare): 5 (85.0 to <90.0)
Effect on weed grasses (evaluation scheme number), Lolium (Lolium [12]; 2.5 kg/hectare): 3 (95.0 to <.97.5)
Effect on weed grasses (evaluation scheme number), Echinochloa (Echinochloa [13]; 0.15 kg/hectare): 4 (90.0 to <95.0)
Effect on weed grasses (evaluation scheme number), Echinochloa (Echinochloa [13]; 0.62 kg/hectare): 3 (95.0 to <.97.5)
Effect on weed grasses (evaluation scheme number), Echinochloa (Echinochloa [13]; 2.5 kg/hectare): 2 (97.5 to <100)
amount sufficient/required to keep blackgrass satisfactorily under control (Alopecurus; greenhouse): 2.5 kg per hectare
Effect on weed grasses (evaluation scheme number), Alopecurus (Alopecurus; 0.15 kg/hectare): 8 (32.5 to <65.0)
Effect on weed grasses (evaluation scheme number), Alopecurus (Alopecurus; 0.62 kg/hectare): 7 (65.0 to <75.0)
Effect on weed grasses (evaluation scheme number), Alopecurus (Alopecurus; 2.5 kg/hectare): 4 (90.0 to <95.0)
Effect (evaluation scheme), Alopecurus myos. (Alopecurus myos.; 0.225 kg/hectare): 8 (32.5 to <65.0)
Effect (evaluation scheme), Alopecurus myos. (Alopecurus myos.; 0.45 kg/hectare): 6 (75.0 to <85.0)
Effect (evaluation scheme), Alopecurus myos. (Alopecurus myos.; 0.9 kg/hectare): 4 (90.0 to <95.0)
response of annual black-grass (Alopecurus) (Alopecurus myos.; in words): little
